Assay results reported in US10766888B1, “HMOX1 inducers” (Mitobridge Inc., priority 2019, dated 2020).

Tested on: Human Heme Oxygenase-1 (HMOX-1)
Experiment: ELISA assay to measure human heme oxygenase-1 (HMOX-1) in HepG2 lysate
Type: cell-based
Details: human HMOX1 protein level in HepG2 lysate; * = average of 2 or more EC50 determinations; NA = Not Active; read-out: EC50
Protocol: Example 143. ELISA Assay to Measure Human Heme Oxygenase-1 (HMOX-1) in HepG2 lysate
Reagents and Technical Notes:
ELISA capture antibody, standard HO-1, detection antibody and streptavidin HRP were supplied in the DuoSet IC Human total HO-1 ELISA from R&D systems (DYC3776-2). The substrate cocktail was KPL LumiGLO reserve Chemiluminescent Substrate (54-71-00). PBS was Corning Cellgro Cell Culture (21-040-CV). 10×PBS+0.05% tween20 (PBST) was from KPL.
All incubations of the plate were at room temperature (20° C.) in a closed drawer.
The ELISA plate was processed manually. All loadings were with a multichannel pipet. Plates were emptied by shaking into the sink and tapping onto paper towels to remove any remaining reagent. Plate washing was accomplished by loading all wells with PBS+0.05% tween20 (PBST) using a squirt bottle, shaking the PBST out and tapping the plate onto paper towels.
Preparation of the ELISA Plate:
• 1. anti-HO-1 capture antibody was 1440 μg/ml after reconstitution in PBS. This antibody was diluted to 8 μg/ml in PBS and 50 μl per well was added to a 384 well greiner “lumitrac 200” plate. Incubated overnight. • 2. The plate was emptied and 100 μl PBS+1% BSA added to all wells. Incubated 90 minutes at room temperature. Preparation of HepG2 Lysate: • 1. Cells were cultured in a 96-well tissue culture plate washed with PBS and then the plate frozen at −70° C. overnight. Plates were allowed to warm to ice temperature in an ice bucket. 20 μl of PBS, 0.5% Triton X100, 1 mM EDTA with 1×HALT™ protease inhibitors was added to each well and the plates incubated on ice for 1 hour. • 2. The lysates were frozen at −20° C. overnight. Measurement of HMOX1 (“HO-1”) • 1. In a polypropylene 384 well plate, human HO-1 (after reconstitution in PBS+0.5% Triton+1 mM EDTA) was serially diluted from 20 ng/ml 2-fold in PBS+0.5% triton-X100, 1 mM EDTA to make a 12-point standard curve including a zero point. • 2. In a polypropylene 96 well plate, HepG2 lysate was diluted 1 to 20 in Diluent #4 from DUOSET kit in which the assay standard is also diluted. • 3. The PBS+1% BSA was emptied from the ELISA plate and 30 μl of all samples and standards were added (duplicates recommended). The plate was incubated 90 minutes. • 4. Emptied plate and washed 4 times with PBST. • 5. Diluted HO-1 detection antibody to 200 ng/ml in PBS+1% BSA and added 30 μl to all wells. Incubated 90 minutes. • 6. Emptied plate and washed 4 times with PBST. • 7. Added 30 μl streptavidin HRP at 1/200 in PBS+1% BSA (stock streptavidin concentration not specified) to all wells. Incubated 30 minutes. • 8. Emptied plate and washed 4 times with PBST. • 9. Diluted Lumiglo reserve reagent two parts buffer to one part lumiglo substrate. Added 30 μl to all wells. Incubated 5 minutes. • 10. Measured chemiluminescence on spectramax M5 using 150 ms integration.
Table 1 below lists EC50 and fold changes of human HMOX1 protein levels relative to DMSO control upon treatment with representative compounds.

| Structure (SMILES) | EC50 [µM] |
| --- | --- |
| COCCNC(=O)c1ccc2c(c1)nc(Nc1nc3ccccc3[nH]1)n2C [Example 12, 2-((1H-benzo[d]imidazol-2-yl)amino)-N-(2-methoxyethyl)-1-methyl-1H-benzo[d]imidazole-5-carboxamide] | 4.5 |
| COCCNC(=O)c1ccc2c(c1)nc(Nc1nc3ccc(OC(F)(F)F)cc3s1)n2C1CCOCC1 [Example 2e, N-(2-methoxyethyl)-1-(tetrahydro-2H-pyran-4-yl)-2-((6-(trifluoromethoxy)benzo[d]thiazol-2-yl)amino)-1H-benzo[d]imidazole-5-carboxamide] | 3.8 |
| COCCNC(=O)c1ccc2c(c1)nc(Nc1nc3ccc(OC(F)(F)F)cc3o1)n2CCS(C)(=O)=O [Example 90, N-(2-methoxyethyl)-1-(2-(methylsulfonyl)ethyl)-2-((6-(trifluoromethoxy)benzo[d]oxazol-2-yl)amino)-1H-benzo[d]imidazole-5-carboxamide] | 4.8 |
| COCCNC(=O)c1ccc2c(c1)nc(Nc1nc3c(s1)COCC3)n2C [Example 11, 2-((6,7-dihydro-4H-pyrano[4,3-d]thiazol-2-yl)amino)-N-(2-methoxyethyl)-1-methyl-1H-benzo[d]imidazole-5-carboxamide] | 6.6 |
| COCCn1c(Nc2nc3ccc(OC(F)(F)F)cc3o2)nc2cc(C(=O)O)ccc21 [Example 77, 1-(2-methoxyethyl)-2-((6-(trifluoromethoxy)benzo[d]oxazol-2-yl)amino)-1H-benzo[d]imidazole-5-carboxylic acid] | 4.1 |
| CCn1c(Nc2nc3ccc(OC(F)(F)F)cc3o2)nc2cc(C(=O)O)ccc21 [Example 84, 1-ethyl-2-((6-(trifluoromethoxy)benzo[d]oxazol-2-yl)amino)-1H-benzo[d]imidazole-5-carboxylic acid] | 5.4 |
| CN1CCC(n2c(Nc3nc4ccc(OC(F)(F)F)cc4s3)nc3cc(C(=O)O)ccc32)C1 (stereo not drawn) [Example 4d, 1-(1-methylpyrrolidin-3-yl)-2-((6-(trifluoromethoxy)benzo[d]thiazol-2-yl)amino)-1H-benzo[d]imidazole-5-carboxylic acid] | 4.7 |
| Cn1c(Nc2nc3cc(F)ccc3o2)nc2cc(C(=O)O)ccc21 [Example 66, 2-((5-fluorobenzo[d]oxazol-2-yl)amino)-1-methyl-1H-benzo[d]imidazole-5-carboxylic acid] | 5.4 |
| Cn1c(Nc2nc3cc(F)c(C(F)(F)F)cc3o2)nc2cc(C(=O)O)ccc21 [Example 107, 2-((5-fluoro-6-(trifluoromethyl)benzo[d]oxazol-2-yl)amino)-1-methyl-1H-benzo[d]imidazole-5-carboxylic acid] | 4.5 |
| CN1CCC(n2c(Nc3nc4ccc(OC(F)(F)F)cc4s3)nc3cc(C(=O)O)ccc32)CC1 [Example 3d, 1-(1-methylpiperidin-4-yl)-2-((6-(trifluoromethoxy)benzo[d]thiazol-2-yl)amino)-1H-benzo[d]imidazole-5-carboxylic acid] | 9.2 |
| Cn1c(Nc2nc3cc(C(=O)NCCOCCO)ccc3o2)nc2ccccc21 [Example 118, N-(2-(2-hydroxyethoxy)ethyl)-2-((1-methyl-1H-benzo[d]imidazol-2-yl)amino)benzo[d]oxazole-5-carboxamide] | 8 |
| O=C(O)c1ccc2c(c1)nc(Nc1nc3ccc(OC(F)(F)F)cc3o1)n2CC1CCOC1 (stereo not drawn) [Example 87, 1-((tetrahydrofuran-3-yl)methyl)-2-((6-(trifluoromethoxy)-benzo[d]oxazol-2-yl)amino)-1H-benzo[d]imidazole-5-carboxylic acid] | 6.8 |

Compounds with a lower EC50, results first:

| EC50 [µM] | Structure (SMILES) |
| --- | --- |
| 3.2 | Cn1c(Nc2nc3ccc(OC(F)(F)F)cc3o2)nc2cc(C(=O)NCCS(C)(=O)=O)ccc21 [Example 54, 1-methyl-N-(2-(methylsulfonyl)ethyl)-2-((6-(trifluoromethoxy)benzo[d]oxazol-2-yl)amino)-1H-benzo[d]imidazole-5-carboxamide] |
| 1.6 | O=C(NCCO)c1ccc2c(c1)nc(Nc1nc3ccc(OC(F)(F)F)cc3o1)n2CC1(O)COC1 [Example 95, N-(2-hydroxyethyl)-1-((3-hydroxyoxetan-3-yl)methyl)-2-((6-(trifluoromethoxy)benzo[d]oxazol-2-yl)amino)-1H-benzo[d]imidazole-5-carboxamide] |
| 2.3 | COCCNC(=O)c1ccc2c(c1)nc(Nc1nc3cc(OC(F)(F)F)ccc3[nH]1)n2C1CCOCC1 [Example 81, N-(2-methoxyethyl)-1-(tetrahydro-2H-pyran-4-yl)-2-((5-(trifluoromethoxy)-1H-benzo[d]imidazol-2-yl)amino)-1H-benzo[d]imidazole-5-carboxamide] |
| 1.9 | COCCNC(=O)c1ccc2c(c1)nc(Nc1nc3ccc(OC(F)(F)F)cc3o1)n2C1CCOCC1 [Example 80, N-(2-methoxyethyl)-1-(tetrahydro-2H-pyran-4-yl)-2-((6-(trifluoromethoxy)benzo[d]oxazol-2-yl)amino)-1H-benzo[d]imidazole-5-carboxamide] |
| 1.1 | COCCNC(=O)c1ccc2c(c1)nc(Nc1nc3ccc(OC(F)(F)F)cc3s1)n2C1CCN(C)CC1 [Example 3e, N-(2-methoxyethyl)-1-(1-methylpiperidin-4-yl)-2-((6-(trifluoromethoxy)benzo[d]thiazol-2-yl)amino)-1H-benzo[d]imidazole-5-carboxamide] |
| 3.3 | Cn1c(Nc2nc3ccccc3o2)nc2cc(C(O)C(F)(F)F)ccc21 (stereo not drawn) [Example 142, 1-(2-(benzo[d]oxazol-2-ylamino)-1-methyl-1H-benzo[d]imidazol-5-yl)-2,2,2-trifluoroethan-1-ol] |
| 2.8 | Cn1c(Nc2nc3ccc(Cl)cc3o2)nc2cc(C(=O)O)ccc21 [Example 96, 2-((6-chlorobenzo[d]oxazol-2-yl)amino)-1-methyl-1H-benzo[d]imidazole-5-carboxylic acid] |
| 2.2 | COCCNC(=O)c1ccc2c(c1)nc(Nc1nc3ccc(OC(F)(F)F)cc3o1)n2CCOC [Example 78, N,1-bis(2-methoxyethyl)-2-((6-(trifluoromethoxy)benzo[d]oxazol-2-yl)amino)-1H-benzo[d]imidazole-5-carboxamide] |
| 2 | Cn1c(Nc2nc3ccc(F)cc3o2)nc2cc(C(=O)O)ccc21 [Example 68, 2-((6-fluorobenzo[d]oxazol-2-yl)amino)-1-methyl-1H-benzo[d]imidazole-5-carboxylic acid] |
| 3.2 | Cn1c(Nc2nc3ccc(OC(F)(F)F)cc3o2)nc2cc(C(=O)O)c(F)cc21 [Example 70, 6-fluoro-1-methyl-2-((6-(trifluoromethoxy)benzo[d]oxazol-2-yl)amino)-1H-benzo[d]imidazole-5-carboxylic acid] |
| 0.8 | COCCNC(=O)c1ccc2c(c1)nc(Nc1nc3ccccc3o1)n2C [Example 1i, 2-(benzo[d]oxazol-2-ylamino)-N-(2-methoxyethyl)-1-methyl-1H-benzo[d]imidazole-5-carboxamide] |
| 3 | COCCNC(=O)c1ccc2c(c1)nc(Nc1nc3ccc(C4CC4)cc3o1)n2C [Example 116, 2-((6-cyclopropylbenzo[d]oxazol-2-yl)amino)-N-(2-methoxyethyl)-1-methyl-1H-benzo[d]imidazole-5-carboxamide] |
| 1.3 | CCn1c(Nc2nc3ccc(OC(F)(F)F)cc3o2)nc2cc(C(=O)NCCOC)ccc21 [Example 85, 1-ethyl-N-(2-methoxyethyl)-2-((6-(trifluoromethoxy)benzo[d]oxazol-2-yl)amino)-1H-benzo[d]imidazole-5-carboxamide] |
| 1.8 | COCCNC(=O)c1ccc2c(c1)nc(Nc1nc3cc(Cl)ccc3[nH]1)n2C [Example 83, 2-((5-chloro-1H-benzo[d]imidazol-2-yl)amino)-N-(2-methoxyethyl)-1-methyl-1H-benzo[d]imidazole-5-carboxamide] |
| 1.1 | CN(C)CCNC(=O)c1ccc2c(c1)nc(Nc1nc3ccccc3o1)n2C [Example 21, 2-(benzo[d]oxazol-2-ylamino)-N-(2-(dimethylamino)ethyl)-1-methyl-1H-benzo[d]imidazole-5-carboxamide] |
